Measurements as given in US20230069963A1, “PYRAZOLO[1,5-A]PYRIMIDINE MACROCYCLIC COMPOUND” (priority 2018, published 2023).
Structures can show the parent of a compound that is named as a salt.

What follows are compounds tested on RSV ATCC VR-1540 (A2) (assay: microbe, parasite or virus in culture). Conditions: human respiratory syncytial virus, HEp-2, 96 h; Hep2 cells, incubated for 4 days, CPE detected with XTT assay (absorbance 450 nm); read-out: EC50 (nmol/L) against RSV A2 strain.
Assay type: cell-based
For `CN1CCNC(C(F)(F)F)COc2ccc(Cl)cc2C(=O)N2CCCCC2c2cc3nc(N4CC(N)C4)cc1n3n2` (single isomer, unassigned) [Example 338], the EC50 was 2.37 nmol/L. With `CCC1c2cc3nc(N4CCC(N)C4)cc(n3n2)N(C)CCCCCOc2ccc(C)cc2C(=O)N1C` (stereo in doubt) [Example 230, (18S)-3-[(3S)-3-aminopyrrolidin-1-yl]-18-ethyl-5,14,17-trimethyl-5,6,7,8,9,10,17,18-octahydro-16H-19,1-(metheno)pyrimido[6,1-h][1,7,9,10,13]benzoxatetraazacyclohexadecin-16-one] the EC50 was 11.8 nmol/L. `CN1CCNC(=O)COc2ccc(F)cc2C(=O)N2CCCC[C@H]2c2cc3nc(N4CC(O)C4)cc1n3n2` [Example 3, (18aS)-2-fluoro-13-(3-hydroxyazetidin-1-yl)-J 1-methyl-8,9,10,11,19,20,21,22-octahydro-18aH,24H-18,15-(metheno)pyrido[2,1-l]pyrimido[6,1-h][1,4,7,9,10,13]benzoxapentaazacyclohexadecine-7,24(6H)-dione] was tested, and the EC50 was ~0.81 nmol/L. Work on `CN1CCNC(=O)COc2ccc(F)cc2C(=O)N2CCCC[C@H]2c2cc3nc(N4CC(N)C4)cc1n3n2` [Example 4, (18aS)-13-(3-aminoazetidin-1-yl)-2-fluoro-11-methyl-8,9,10,11,19,20,21,22-octahydro-18aH,24H-18,15-(metheno)pyrido[2,1-l]pyrimido[6,1-h][1,4,7,9,10,13]benzoxapentaazacyclohexadecine-7,24(6H)-dione] yielded an EC50 of 2.71 nmol/L. `CNC1CN(c2cc3n4nc(cc4n2)[C@@H]2CCCCN2C(=O)c2cc(F)ccc2OCC(=O)NCCN3C)C1` [Example 5, (18aS)-2-fluoro-11-methyl-13-[3-(methylamino)azetidin-1-yl]-8,9,10,11,19,20,21,22-octahydro-18aH,24H-18,15-(metheno)pyrido[2,1-l]pyrimido[6,1-h][1,4,7,9,10,13]benzoxapentaazacyclohexadecine-7,24(6H)-dione] was tested, and the EC50 was 7.02 nmol/L. `CN1CCN(C)c2cc(N3CC(N)C3)nc3cc(nn23)[C@@H]2CCCCN2C(=O)c2cc(F)ccc2OCC1=O` [Example 8, (18aS)-13-(3-aminoazetidin-1-yl)-2-fluoro-8,11-dimethyl-8,9,10,11,19,20,21,22-octahydro-18aH,24H-18,15-(metheno)pyrido[2,1-l]pyrimido[6,1-h][1,4,7,9,10,13]benzoxapentaazacyclohexadecine-7,24(6H)-dione] was tested, and the EC50 was 6.3 nmol/L. Work on `CCN1CCN(C)c2cc(N3CC(N)C3)nc3cc(nn23)[C@@H]2CCCCN2C(=O)c2cc(F)ccc2OCC1=O` [Example 9, (18aS)-13-(3-aminoazetidin-1-yl)-8-ethyl-2-fluoro-11-methyl-8,9,10,11,19,20,21,22-octahydro-18aH,24H-18,15-(metheno)pyrido[2,1-l]pyrimido[6,1-h][1,4,7,9,10,13]benzoxapentaazacyclohexadecine-7,24(6H)-dione] yielded an EC50 of 6.34 nmol/L. Compound `CN1CC(C)(C)NC(=O)COc2ccc(F)cc2C(=O)N2CCCC[C@H]2c2cc3nc(N4CC(N)C4)cc1n3n2` [Example 11, (18aS)-13-(3-aminoazetidin-1-yl)-2-fluoro-9,9,11-trimethyl-8,9,10,11,19,20,21,22-octahydro-18aH,24H-18,15-(metheno)pyrido[2,1-l]pyrimido[6,1-h][1,4,7,9,10,13]benzoxapentaazacyclohexadecine-7,24(6H)-dione] has an EC50 of 1.56 nmol/L. `CC1Oc2ccc(F)cc2C(=O)N2CCCCC2c2cc3nc(N4CC(N)C4)cc(n3n2)N(C)CCNC1=O` [Example 12, (18aS)-13-(3-aminoazetidin-1-yl)-2-fluoro-6,11-dimethyl-8,9,10,11,19,20,21,22-octahydro-18aH,24H-18,15-(metheno)pyrido[2,1-l]pyrimido[6,1-h][1,4,7,9,10,13]benzoxapentaazacyclohexadecine-7,24(6H)-dione] was tested, and the EC50 was ~2 nmol/L. Work on `NC1CN(c2cc3n4nc(cc4n2)[C@@H]2CCCCN2C(=O)c2cc(F)ccc2OCC(=O)NCCN3C2CC2)C1` [Example 14, (18aS)-13-(3-aminoazetidin-1-yl)-11-cyclopropyl-2-fluoro-8,9,10,11,19,20,21,22-octahydro-18aH,24H-18,15-(metheno)pyrido[2,1-l]pyrimido[6,1-h][1,4,7,9,10,13]benzoxapentaazacyclohexadecine-7,24(6H)-dione] yielded an EC50 of 2.31 nmol/L. Compound `COc1cc2n3nc(cc3n1)[C@@H]1CCCCN1C(=O)c1cc(F)ccc1OCC(=O)NCCN2C` [Example 20, (18aS)-2-fluoro-I 3-methoxy-11-methyl-8,9,10,11,19,20,21,22-octahydro-18aH,24H-18,15-(metheno)pyrido[2,1-l]pyrimido[6,1-h][1,4,7,9,10,13]benzoxapentaazacyclohexadecine-7,24(6H)-dione] has an EC50 of 1.26 nmol/L. For `CN1CCNC(=O)COc2ccc(F)cc2C(=O)N2CCCC[C@H]2c2cc3nc(CN)cc1n3n2` [Example 25, (18aS)-13-(aminomethyl)-2-fluoro-11-methyl-8,9,10,11,19,20,21,22-octahydro-18aH,24H-18,15-(metheno)pyrido[2,1-l]pyrimido[6,1-h][1,4,7,9,10,13]benzoxapentaazacyclohexadecine-7,24(6H)-dione], the EC50 was ~14 nmol/L. Work on `CCc1ccc2c(c1)C(=O)N1CCCC[C@H]1c1cc3nc(OCCN)cc(n3n1)N(C)CCNC(=O)CO2` [Example 50, (18aS)-13-(2-aminoethoxy)-2-ethyl-1-methyl-8,9,10,11,19,20,21,22-octahydro-18aH,24H-18,15-(metheno)pyrido[2,1-l]pyrimido[6,1-h][1,4,7,9,10,13]benzoxapentaazacyclohexadecine-7,24(6H)-dione] yielded an EC50 of 2.18 nmol/L. For `COc1ccc2c(c1)C(=O)N1CCCC[C@H]1c1cc3nc(N4CCC4)cc(n3n1)N(C)CCNC(=O)CO2` [Example 51, (18aS)-13-(azetidin-1-yl)-2-methoxy-11-methyl-8,9,10,11,19,20,21,22-octahydro-18aH,24H-18,15-(metheno)pyrido[2,1-l]pyrimido[6,1-h][1,4,7,9,10,13]benzoxapentaazacyclohexadecine-7,24(6H)-dione], the EC50 was 1.21 nmol/L. Compound `CN1CCNC(=O)COc2ccc(C(C)(F)F)cc2C(=O)N2CCCC[C@H]2c2cc3nc(N4CCC4)cc1n3n2` [Example 54, (18aS)-13-(azetidin-1-yl)-2-(1,1-difluoroethyl)-11-methyl-8,9,10,11,19,20,21,22-octahydro-18aH,24H-18,15-(metheno)pyrido[2,1-l]pyrimido[6,1-h][1,4,7,9,10,13]benzoxapentaazacyclohexadecine-7,24(6H)-dione] has an EC50 of 3.2 nmol/L. `Cc1c(N2CC(N)C2)nc2cc3nn2c1N(C)CCNC(=O)COc1ccc(F)cc1C(=O)N1CCCC[C@@H]31` [Example 61, (18aS)-13-(3-aminoazetidin-1-yl)-2-fluoro-11,12-dimethyl-8,9,10,11,19,20,21,22-octahydro-18aH,24H-18,15-(metheno)pyrido[2,1-l]pyrimido[6,1-h][1,4,7,9,10,13]benzoxapentaazacyclohexadecine-7,24(6H)-dione] was tested, and the EC50 was 1.77 nmol/L. Work on `Cc1c(N2CCC2)nc2cc3nn2c1N(C)CCN(C)C(=O)COc1ccc(F)cc1C(=O)N1CCCC[C@@H]31` [Example 63, (18aS)-13-(azetidin-1-yl)-2-fluoro-8,11,12-trimethyl-8,9,10,11,19,20,21,22-octahydro-18aH, 24H-18,15-(metheno)pyrido[2,1-l]pyrimido[6,1-h][1,4,7,9,10,13]benzoxapentaazacyclohexadecine-7,24(6H)-dione] yielded an EC50 of 2.49 nmol/L. `Cc1c(CCCN)nc2cc3nn2c1N(C)CCNC(=O)COc1ccc(Cl)cc1C(=O)N1CCCC[C@@H]31` [Example 75, (18aS)-13-(3-aminopropyl)-2-chloro-11,12-dimethyl-8,9,10,11,19,20,21,22-octahydro-18aH, 24H-18,15-(metheno)pyrido[2,1-l]pyrimido[6,1-h][1,4,7,9,10,13]benzoxapentaazacyclohexadecine-7,24 (6H)-dione] gave an EC50 of 1 nmol/L. `Cc1c(CCCCN)nc2cc3nn2c1N(C)CCNC(=O)COc1ccc(Cl)cc1C(=O)N1CCCC[C@@H]31` [Example 78, (18aS)-13-(4-aminobutyl)-2-chloro-11,12-dimethyl-8,9,10,11,19,20,21,22-octahydro-18aH,24H-18,15-(metheno)pyrido[2,1-l]pyrimido[6,1-h][1,4,7,9,10,13]benzoxapentaazacyclohexadecine-7,24(6H)-dione] showed an EC50 of 1.7 nmol/L. `CN1CCNC(=O)COc2ccc(Cl)cc2C(=O)N2CCCCC2c2cc3nc(N4CC[C@H](N)C4)c(F)c1n3n2` (stereo partly drawn) [Example 87, (18aS)-13-[(3S)-3-aminopyrrolidin-1-yl]-2-chloro-12-fluoro-11-methyl-8,9,10,11,19,20,21,22-octahydro-18aH,24H-18,15-(metheno)pyrido[2,1-l]pyrimido[6,1-h][1,4,7,9,10,13]benzoxapentaazacyclohexadecine-7,24(6H)-dione hydrochloride] was tested, and the EC50 was 3.77 nmol/L. In the case of `[2H]C([2H])([2H])N1CCNC(=O)COc2ccc(F)cc2C(=O)N2CCCC[C@H]2c2cc3nc(C4CC4)cc1n3n2` [Example 94, (18aS)-13-cyclopropyl-2-fluoro-11-trideuteriomethyl-8,9,10,11,19,20,21,22-octahydro-18aH, 24H-18,15-(metheno)pyrido[2,1-l]pyrimido[6,1-h][1,4,7,9,10,13]benzoxapentaazacyclohexadecine-7,24(6H)-dione], the EC50 is reported as 0.207 nmol/L. In the case of `CN1CCNC(=O)COc2ccc(I)cc2C(=O)N2CCCC[C@H]2c2cc3nc(C4CC4)cc1n3n2` [Example 97, (18aS)-13-cyclopropyl-2-iodo-1 l-methyl-8,9,10,11,19,20,21,22-octahydro-18aH,24H-18,15-(metheno)pyrido[2,1l-]pyrimido[6,1-h][1,4,7,9,10,13]benzoxapentaazacyclohexadecine-7,24(6H)-dione], the EC50 is reported as 0.76 nmol/L. `CN1CCNC(=O)COc2ccc(C3CC3)cc2C(=O)N2CCCC[C@H]2c2cc3nc(C4CC4)cc1n3n2` [Example 99, (18aS)-2,13-dicyclopropyl-11-methyl-8,9,10,11,19,20,21,22-octahydro-18aH,24H-18,15-(metheno)pyrido[2,1-l]pyrimido[6,1-h][1,4,7,9,10,13]benzoxapentaazacyclohexadecine-7,24(6H)-dione] was tested, and the EC50 was 0.571 nmol/L.
